Source: PubChem BioAssay (NCI)
Several values for one entry are separate records, joined by “and”; a condition that tells them apart may be missing. Equal entries are not always repeated.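 1) Cells in 96-well plates. 2) Compound, 48 h, 5 concentrations. 3) Linear interpolation between surrounding doses. 4) Unreached endpoint = highest concentration. GI50 = concentration required for 50% inhibition of growth. At the TGI there is no net growth.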

What was measured:
Experiment in all cases: NCI tumour cell line growth inhibition, 48 h
DLD-1 colon = tested on: DLD-1 colon
DMS 114 small cell lung = tested on: DMS 114 small cell lung
DMS 273 small cell lung = tested on: DMS 273 small cell lung
HOP-18 NSCLC = tested on: HOP-18 NSCLC
RXF-631 renal = tested on: RXF-631 renal
SNB-78 CNS = tested on: SNB-78 CNS
M19-MEL melanoma = tested on: M19-MEL melanoma
XF 498 CNS = tested on: XF 498 CNS
MDA-N = tested on: MDA-N
P388 leukemia = tested on: P388 leukemia
P388/ADR leukemia = tested on: P388/ADR leukemia

SMILES	TGI (DLD-1 colon) [µM]	TGI (DMS 114 small cell lung)	TGI (DMS 273 small cell lung) [µM]	TGI (HOP-18 NSCLC) [µM]	TGI (RXF-631 renal) [µM]	TGI (SNB-78 CNS)	TGI (M19-MEL melanoma)	TGI (XF 498 CNS)	also measured
Cc1ccccc1N1C(=O)/C(=C/c2ccc(N(CCC#N)CCC#N)cc2)N=C1c1cc([N+](=O)[O-])ccc1Cl	> 100	> 100 µM	> 100	> 100	> 100	> 100 µM			
CC1OC(n2cc(F)c(=O)[nH]c2=O)C=CC1O (configuration not stated)	> 100	> 100 µM	> 100	> 100	> 100	> 100 µM	> 100 µM	> 100 µM	
O=S(O)CCCCSSCC(O)C(O)CSSCCCCS(=O)O (configuration not stated)	> 100	34 µM and 56.6 µM	> 100	> 100	> 100	97.7 µM and > 100 µM	15.6 µM and 29.7 µM	35.9 µM and 26 µM	
CCOP(=O)(Cc1ccc(CP(=O)(OCC)OCC)n1C)OCC	> 100	> 100 µM	> 100	> 100	> 100		> 100 µM		
CCCCCCCCCC/C=C/CC(=O)SCCNC(=O)CCNC(=O)[C@@H](O)C(C)(C)COP(=O)(O)OP(=O)(O)OCC1OC(n2cnc3c(N)ncnc32)C(O)C1OP(=O)(O)O (some centres not stated)									TGI (MDA-N): > 10 µM
Cc1ccc(S(=O)(=O)NCC2CCCCC2=O)cc1 (configuration not stated)		> 100 µM	> 100	> 100		> 100 µM	> 100 µM	> 100 µM	
CCN(CC)CCOc1ccc(/C=C(\C#N)c2ccc(OCCN(CC)CC)cc2)cc1	> 83.3	23.2 µM	26.5	57.3		> 87.5 µM	28.9 µM	29.3 µM	
CC1=Nc2ccccc2C1C(Cc1ccccc1N)c1c(C)[nH]c2ccccc12 (configuration not stated)	35.4	33.5 µM		24.8	44.4		33.1 µM	32.5 µM	
COc1ccc(OC)c(NC(=O)C(=O)NNC(=O)c2sc(NNC(C)=O)nc2C)c1						> 100 µM	> 100 µM	85.3 µM	
C=C(CCCCC)CN1CCCC1[C@@](C)(O)CC(=O)OCC (some centres not stated)	> 100	> 100 µM	> 100	> 100		> 100 µM	> 100 µM	> 100 µM	
CCCCN(CCCC)CC(C(=O)Nc1ccc([N+](=O)[O-])cc1[N+](=O)[O-])/C(C)=N\NC(=S)NN (configuration not stated)	> 100	> 100 µM	> 100				> 100 µM	> 100 µM	
COC(=O)C1=C(C)N(NC(=O)c2ccccc2)C(C)(O)C12CCOC2=O (configuration not stated)	> 100	> 100 µM	> 100	> 100		> 100 µM		> 100 µM	
O=C(O)CNc1cc(-c2ccccc2)nc(NCC(=O)O)n1	> 100	> 100 µM	> 100	> 100	> 100	> 100 µM	> 100 µM	> 100 µM	
CC1=CC(/C=C(\C)CCCc2ccoc2)C2(OC(=O)C(C)=C2O)[C@H]2C1CC[C@@H]2C (some centres not stated)	> 100	72.2 µM		82.6		85.2 µM	90.6 µM		
COC(=O)C1=C(c2ccc3c(c2)OCO3)O[C@H](c2cc(OC)c(OC)c(OC)c2)[C@H]1COC(C)=O	> 100	5.8 µM	> 100	60.9		> 100 µM	27.9 µM	36.8 µM	
O=C1CN=C(C[N+](=O)[O-])c2ccccc21	> 100	> 100 µM	> 100	> 100	> 100	> 100 µM			
CC(=O)O.CC(=O)O.CC(=O)O.CC(=O)O.CC(=O)O.CC(=O)O.O.[Ti].[Ti]	> 100		> 100	> 100		> 100 µM			GI50 (DLD-1 colon): > 100 µM; GI50 (DMS 273 small cell lung): > 100 µM; GI50 (HOP-18 NSCLC): > 100 µM; GI50 (SNB-78 CNS): > 100 µM
O=c1n(CC2CO2)c(=O)n(CC2CO2)c(=O)n1CC1CO1 (configuration not stated)	143	70.9 µM	51.4	202		199 µM	113 µM		GI50 (MDA-N): 26.5 µM; TGI (MDA-N): 72 µM and 82.6 µM; TGI (P388 leukemia): 122 µM; TGI (P388/ADR leukemia): 275 µM

SMILES	TGI (DLD-1 colon) [µM]	TGI (DMS 114 small cell lung)	TGI (DMS 273 small cell lung) [µM]	TGI (HOP-18 NSCLC) [µM]	TGI (RXF-631 renal) [µM]	TGI (SNB-78 CNS)	TGI (M19-MEL melanoma)	TGI (XF 498 CNS)	also measured
CC(C)(C)OC(=O)NCC(=O)OCc1ccccc1	> 100	> 100 µM	> 100			> 100 µM	> 100 µM	> 100 µM	
CC(O)C(N=Cc1ccccc1[O-])C(=O)[O-].CC(O)C(N=Cc1ccccc1[O-])C(=O)[O-].[Co+2] (configuration not stated)	> 100			> 100	> 100	> 100 µM	> 100 µM	> 100 µM	GI50 (DLD-1 colon): 83.7 µM; GI50 (HOP-18 NSCLC): 70.8 µM; GI50 (M19-MEL melanoma): 78.8 µM; GI50 (RXF-631 renal): > 100 µM; GI50 (SNB-78 CNS): > 100 µM; GI50 (XF 498 CNS): > 100 µM
O=S(=O)([O-])c1ccc2c(c1)-c1nc-2nc2[n-]c(nc3nc(nc4[n-]c(n1)c1ccc(S(=O)(=O)[O-])cc41)-c1cc(S(=O)(=O)[O-])ccc1-3)c1ccc(S(=O)(=O)[O-])cc21.[Cu+2].[Na+]	> 100	> 100 µM	> 100	> 100	> 100	> 100 µM	> 100 µM	> 100 µM	GI50 (DLD-1 colon): 7.65 µM; GI50 (DMS 114 small cell lung): 31.2 µM; GI50 (DMS 273 small cell lung): 6.07 µM; GI50 (HOP-18 NSCLC): > 100 µM; GI50 (M19-MEL melanoma): 6.21 µM; GI50 (MDA-N): > 100 µM; TGI (MDA-N): > 100 µM; GI50 (RXF-631 renal): > 86.8 µM; GI50 (SNB-78 CNS): > 100 µM; GI50 (XF 498 CNS): 68.3 µM
O=[n+]1c2c(n([O-])c3ccccc31)CCCCCCCCCC2	> 100		> 100			> 100 µM	> 100 µM	> 100 µM	
COc1ccc(NC(=O)CCc2cc(-c3ccc(O)c(OC)c3)nc(NC#N)n2)cc1	> 100	> 100 µM		> 100		> 100 µM	> 100 µM		
O=C(Nc1nc2ncn(CCI)c2c(=O)[nH]1)c1ccccc1			> 100	> 100	> 100	> 100 µM	> 100 µM	> 61.2 µM	
CCOC(=O)Oc1c(OC)cc(C(=O)NC2CCc3cc(OC)c(OC)c(OC)c3-c3ccc(SC)c(=O)cc32)cc1OC (configuration not stated)	> 70	0.0556 µM and < 0.007 µM	> 70				> 70 µM	0.896 µM	GI50 (DLD-1 colon): 0.0223 µM; GI50 (DMS 114 small cell lung): < 0.007 µM; GI50 (M19-MEL melanoma): < 0.007 µM
CNC(=S)NC1CCCCC1NC(=S)NC (configuration not stated)	> 100	> 100 µM	> 100	> 100	> 100	> 100 µM	> 100 µM	> 100 µM	
Cc1cc(Br)cc(C)c1NC(=O)C(=O)C(C(=O)c1ccc2ccccc2c1)C1OC(=O)c2ccccc21 (configuration not stated)	34.2	41.8 µM	86	41.3	> 100		46.3 µM	18 µM	
O=c1c2ccccc2[se]n1-c1cccnc1									TGI (MDA-N): 52.9 µM
COC(=O)C12C3C4C1C1C2C3C41C(=O)OC(C)(C)C (configuration not stated)	> 72.3	> 67.4 µM	> 60.5	> 100	> 100	> 100 µM	> 100 µM	> 100 µM	
Cc1nnc(S(=O)(=O)c2ccc(N=Nc3c(N)nc(N)nc3N)cc2)s1									TGI (MDA-N): > 100 µM
O=C1CCCC/C(=C/c2ccccc2)N1	> 100	> 100 µM	> 100	> 100		> 100 µM	> 100 µM	> 100 µM	
O=C(O/N=C1/CCCC/C1=C\c1ccccc1)c1ccccc1	> 100	31.3 µM	> 100	> 100			> 100 µM	> 100 µM	
CC(C)(C)[SiH]12(OC(C(F)(F)F)(C(F)(F)F)c3ccccc31)OC(C(F)(F)F)(C(F)(F)F)c1ccccc12	13.3	22.3 µM	24.3	9.83	10.7	25.3 µM	26.4 µM	24.3 µM	
CCCCc1c(OC)cc(O)c2c1C(=O)c1[nH]c(C(=O)O)c(O)c(=O)c1C2=O									TGI (MDA-N): > 100 µM
S=C(N/N=C/c1ccco1)NC12CC3CC(CC(C3)C1)C2	> 100	> 100 µM	> 100	> 100		> 100 µM	> 100 µM	> 100 µM	
